Source: ChEMBL document CHEMBL4808256, “Benzothiophene derivatives as selective estrogen receptor covalent antagonists: Design, synthesis and anti-ERα activities” (Bioorg Med Chem, 2021)
pIC50: −log10 of the molar value. Calls of active or inactive are those of the source. The rule behind the calls is not given here.

Legend:
MCF7 [1] = test: Antiproliferative activity against ER-positive human MCF7 cells assessed as inhibition of cell growth incubated for 48 hrs by CCK8 assay; assay type: functional, cell-based; conditions: MCF7, 48 h
Ishikawa [2] = test: Antiproliferative activity against ER-positive human Ishikawa cells assessed as inhibition of cell growth incubated for 48 hrs by CCK8 assay; assay type: functional, cell-based
Ishikawa [3] = test: Induction of cell proliferation in human ishikawa cells at 156 to 5000 nM measured after 2 days; assay type: cell-based; conditions: 48 h, 5 µM, dose 156-5000 nM, time 2 day
MDA-MB-231 = test: Antiproliferative activity against ER-negative human MDA-MB-231 cells assessed as inhibition of cell growth incubated for 48 hrs by CCK8 assay; assay type: functional, cell-based; conditions: MDA-MB-231, 48 h
MCF7 [4] = test: Potency index, ratio of raloxifene IC50 to test compound IC50 for antiproliferative activity against ER-positive human MCF7 cells; assay type: functional
MCF7 [5] = test: Induction of apoptosis in human MCF7 cells assessed as necrotic cells at 5 uM by AnnexinV-FITC/propidium iodide staining based flow cytometry (reference value: 0.4%); assay type: functional
MCF7 [6] = test: Induction of apoptosis in human MCF7 cells assessed as late apoptotic cells at 10 uM by AnnexinV-FITC/propidium iodide staining based flow cytometry (reference value: 0.7%); assay type: functional
MCF7 [7] = test: Induction of cell cycle arrest in human MCF7 cells assessed as accumulation at G0/G1 phase at 1 uM by propidium iodide staining based flow cytometric analysis (reference value: 24.44%); assay type: functional
MCF7 [8] = test: Induction of cell cycle arrest in human MCF7 cells assessed as accumulation at S phase at 10 uM by propidium iodide staining based flow cytometric analysis (reference value: 63.32%); assay type: functional
MCF7 [9] = test: Downregulation of ERalpha protein expression in human MCF7 cells at 5 uM incubated for 24 hrs by DAPI staining based immunofluorescence microscopy; assay type: functional, cell-based
MCF7 [10] = test: Induction of apoptosis in human MCF7 cells assessed as early apoptotic cells at 10 uM by AnnexinV-FITC/propidium iodide staining based flow cytometry (reference value: 0.8%); assay type: functional
[11] = target: T1, Estrogen receptor (Homo sapiens) (UniProt P03372); test: Covalent antagonist activity at ERalpha in human MCF7 cells assessed as reduction in E2-stimulated TFF1 gene expression at 1.25 to 10 uM incubated for 24 hrs by RT-PCR analysis; assay type: cell-based; conditions: filed as antagonist, dose 1.25-10 µM
T1 sequence (whole entry): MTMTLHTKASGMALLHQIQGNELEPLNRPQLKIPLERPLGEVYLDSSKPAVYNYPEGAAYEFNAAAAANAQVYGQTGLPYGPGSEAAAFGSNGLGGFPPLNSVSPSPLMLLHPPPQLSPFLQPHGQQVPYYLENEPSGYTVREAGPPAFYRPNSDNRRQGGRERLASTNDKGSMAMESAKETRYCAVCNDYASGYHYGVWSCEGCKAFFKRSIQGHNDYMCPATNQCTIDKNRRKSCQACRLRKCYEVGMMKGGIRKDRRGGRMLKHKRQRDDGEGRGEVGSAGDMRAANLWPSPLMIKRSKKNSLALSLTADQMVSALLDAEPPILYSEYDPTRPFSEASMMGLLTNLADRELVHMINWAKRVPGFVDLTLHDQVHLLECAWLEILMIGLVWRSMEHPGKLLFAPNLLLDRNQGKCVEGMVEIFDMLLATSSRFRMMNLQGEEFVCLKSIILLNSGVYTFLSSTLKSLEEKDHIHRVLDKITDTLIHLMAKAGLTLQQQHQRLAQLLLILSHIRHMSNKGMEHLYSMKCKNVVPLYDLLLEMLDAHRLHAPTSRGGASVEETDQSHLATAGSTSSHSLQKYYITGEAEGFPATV

MCF7 [12] = test: Induction of cell cycle arrest in human MCF7 cells assessed as accumulation at G2/M phase at 1 uM by propidium iodide staining based flow cytometric analysis (reference value: 12.24%); assay type: functional
MCF7 [13] = test: Induction of apoptosis in human MCF7 cells assessed as late apoptotic cells at 5 uM by AnnexinV-FITC/propidium iodide staining based flow cytometry (reference value: 0.7%); assay type: functional
MCF7 [14] = test: Induction of apoptosis in human MCF7 cells assessed as necrotic cells at 1 uM by AnnexinV-FITC/propidium iodide staining based flow cytometry (reference value: 0.4%); assay type: functional
MCF7 [15] = test: Induction of apoptosis in human MCF7 cells assessed as early apoptotic cells at 1 uM by AnnexinV-FITC/propidium iodide staining based flow cytometry (reference value: 0.8%); assay type: functional
MCF7 [16] = test: Induction of apoptosis in human MCF7 cells assessed as viable cells at 10 uM by AnnexinV-FITC/propidium iodide staining based flow cytometry (reference value: 96.1%); assay type: functional; conditions: read-out: Activity
[17] = target: T1, Estrogen receptor (Homo sapiens); test: Covalent antagonist activity at ERalpha in human MCF7 cells assessed as reduction in E2-stimulated GREB1 gene expression at 1.25 to 10 uM incubated for 24 hrs by RT-PCR analysis; assay type: cell-based; conditions: filed as antagonist, dose 1.25-10 µM
MCF7 [18] = test: Induction of cell cycle arrest in human MCF7 cells assessed as accumulation at G2/M phase at 10 uM by propidium iodide staining based flow cytometric analysis (reference value: 12.24%); assay type: functional
MCF7 [19] = test: Induction of apoptosis in human MCF7 cells assessed as necrotic cells at 10 uM by AnnexinV-FITC/propidium iodide staining based flow cytometry (reference value: 0.4%); assay type: functional
MCF7 [20] = test: Induction of apoptosis in human MCF7 cells assessed as early apoptotic cells at 5 uM by AnnexinV-FITC/propidium iodide staining based flow cytometry (reference value: 0.8%); assay type: functional
MCF7 [21] = test: Induction of apoptosis in human MCF7 cells assessed as viable cells at 1 uM by AnnexinV-FITC/propidium iodide staining based flow cytometry (reference value: 96.1%); assay type: functional; conditions: read-out: Activity
MCF7 [22] = test: Induction of cell cycle arrest in human MCF7 cells assessed as accumulation at G2/M phase at 5 uM by propidium iodide staining based flow cytometric analysis (reference value: 12.24%); assay type: functional
[23] = target: T1, Estrogen receptor (Homo sapiens); test: Antagonist activity at ERalpha receptor in human ishikawa cells assessed as suppression of E2-stimulated PGR expression at 1.25 to 10 uM by RT-PCR analysis; assay type: cell-based; conditions: filed as antagonist, dose 1.25-10 µM
MCF7 [24] = test: Induction of cell cycle arrest in human MCF7 cells assessed as accumulation at S phase at 5 uM by propidium iodide staining based flow cytometric analysis (reference value: 63.32%); assay type: functional
MCF7 [25] = test: Induction of apoptosis in human MCF7 cells assessed as late apoptotic cells at 1 uM by AnnexinV-FITC/propidium iodide staining based flow cytometry (reference value: 0.7%); assay type: functional
MCF7 [26] = test: Induction of cell cycle arrest in human MCF7 cells assessed as accumulation at S phase at 1 uM by propidium iodide staining based flow cytometric analysis (reference value: 63.32%); assay type: functional
MCF7 [27] = test: Induction of cell cycle arrest in human MCF7 cells assessed as accumulation at G0/G1 phase at 5 uM by propidium iodide staining based flow cytometric analysis (reference value: 24.44%); assay type: functional
MCF7 [28] = test: Induction of cell cycle arrest in human MCF7 cells assessed as accumulation at G0/G1 phase at 10 uM by propidium iodide staining based flow cytometric analysis (reference value: 24.44%); assay type: functional
MCF7 [29] = test: Induction of apoptosis in human MCF7 cells assessed as viable cells at 5 uM by AnnexinV-FITC/propidium iodide staining based flow cytometry (reference value: 96.1%); assay type: functional; conditions: read-out: Activity

C/C=C/C(=O)NCCOc1ccc(C(=O)c2c(-c3ccc(O)cc3)sc3cc(O)ccc23)cc1
pIC50 (MCF7 [1]): < 4.30
pIC50 (Ishikawa [2]): < 4.00

O=C(c1ccc(OCCNC/C=C/C(=O)N2CCC2)cc1)c1c(-c2ccc(O)cc2)sc2cc(O)ccc12
pIC50 (MCF7 [1]): 4.62
pIC50 (Ishikawa [2]): 4.53

CC/C(=C(\c1ccc(O)cc1)c1ccc(OCCN(C)C)cc1)c1ccccc1 [AFIMOXIFENE]
Activity (Ishikawa [3]): Toxic

O=C(c1ccc(OCCNC/C=C/C(=O)N2CCCCC2)cc1)c1c(-c2ccc(O)cc2)sc2cc(O)ccc12
pIC50 (MCF7 [1]): 4.94
pIC50 (Ishikawa [2]): 5.20

O=C(c1ccc(OC2CN(CCCC(=O)N3CCCCC3)C2)cc1)c1c(-c2ccc(O)cc2)sc2cc(O)ccc12
pIC50 (MDA-MB-231): < 4.30
pIC50 (MCF7 [1]): < 4.30
pIC50 (Ishikawa [2]): < 4.30

COCCNC(=O)/C=C/CNCCOc1ccc(C(=O)c2c(-c3ccc(O)cc3)sc3cc(O)ccc23)cc1
pIC50 (MCF7 [1]): 4.37
pIC50 (Ishikawa [2]): 4.26

C/C=C/C(=O)N1CC(Oc2ccc(C(=O)c3c(-c4ccc(O)cc4)sc4cc(O)ccc34)cc2)C1
pIC50 (MCF7 [1]): 4.63
pIC50 (Ishikawa [2]): 4.65

CC/C(=C(\c1ccccc1)c1ccc(OCCN(C)C)cc1)c1ccccc1 [TAMOXIFEN]
pIC50 (Ishikawa [2]): 4.84

CN(C)C(=O)/C=C/CNCCOc1ccc(C(=O)c2c(-c3ccc(O)cc3)sc3cc(O)ccc23)cc1
pIC50 (MCF7 [1]): < 4.30
pIC50 (Ishikawa [2]): 4.31

O=C(c1ccc(OC2CN(C/C=C/C(=O)N3CCOCC3)C2)cc1)c1c(-c2ccc(O)cc2)sc2cc(O)ccc12
pIC50 (MCF7 [1]): 5.24
Ratio IC50 (MCF7 [4]): 4
pIC50 (Ishikawa [2]): 4.74

C=C(C)C(=O)N1CC(Oc2ccc(C(=O)c3c(-c4ccc(O)cc4)sc4cc(O)ccc34)cc2)C1
pIC50 (MCF7 [1]): 4.64
pIC50 (Ishikawa [2]): 4.65

CNC(=O)/C=C/CNCCOc1ccc(C(=O)c2c(-c3ccc(O)cc3)sc3cc(O)ccc23)cc1
pIC50 (MDA-MB-231): < 4.30
pIC50 (MCF7 [1]): 4.88
pIC50 (Ishikawa [2]): 4.29

O=C(c1ccc(OC2CN(C/C=C/C(=O)N3CCC3)C2)cc1)c1c(-c2ccc(O)cc2)sc2cc(O)ccc12
pIC50 (MCF7 [1]): 4.63
pIC50 (Ishikawa [2]): 4.59

O=C(c1ccc(OCCN2CCCCC2)cc1)c1c(-c2ccc(O)cc2)sc2cc(O)ccc12 [RALOXIFENE]
pIC50 (MCF7 [1]): 4.66
pIC50 (Ishikawa [2]): 4.55

C=C(C)C(=O)NCCOc1ccc(C(=O)c2c(-c3ccc(O)cc3)sc3cc(O)ccc23)cc1
pIC50 (MCF7 [1]): 4.54
pIC50 (Ishikawa [2]): 4.53

C=CC(=O)NCCOc1ccc(C(=O)c2c(-c3ccc(O)cc3)sc3cc(O)ccc23)cc1
pIC50 (MCF7 [1]): 4.43
pIC50 (Ishikawa [2]): < 4.00

O=C(c1ccc(OCCNC/C=C/C(=O)N2CCOCC2)cc1)c1c(-c2ccc(O)cc2)sc2cc(O)ccc12
pIC50 (MDA-MB-231): < 4.30
pIC50 (MCF7 [1]): 5.08
pIC50 (Ishikawa [2]): 4.60

CNC(=O)/C=C/CN1CC(Oc2ccc(C(=O)c3c(-c4ccc(O)cc4)sc4cc(O)ccc34)cc2)C1
pIC50 (MDA-MB-231): < 4.30
pIC50 (MCF7 [1]): 4.95
pIC50 (Ishikawa [2]): 4.35

O=C(c1ccc(OC2CN(C/C=C/C(=O)N3CCCCC3)C2)cc1)c1c(-c2ccc(O)cc2)sc2cc(O)ccc12
Activity (MCF7 [5]): 1.4%
Activity (MCF7 [6]): 15.8%
Activity (MCF7 [7]): 28.53%
Activity (MCF7 [8]): 49.43%
inhibition (MCF7 [9]): Active
Activity (MCF7 [10]): 16.6%
inhibition [11]: Active
Activity (MCF7 [12]): 14.1%
Activity (MCF7 [13]): 9.7%
Activity (MCF7 [14]): 1.2%
Activity (Ishikawa [3]): Non-Toxic
pIC50 (MDA-MB-231): < 4.30
Activity (MCF7 [15]): 8.3%
viability at 10 µM (MCF7 [16]): 66.3%
inhibition [17]: Active
Activity (MCF7 [18]): 11.72%
Activity (MCF7 [19]): 1.3%
Activity (MCF7 [20]): 11.5%
viability at 1 µM (MCF7 [21]): 87.1%
pIC50 (MCF7 [1]): 5.88
Activity (MCF7 [22]): 12.93%
inhibition [23]: Active
Activity (MCF7 [24]): 54.23%
Activity (MCF7 [25]): 3.4%
Activity (MCF7 [26]): 57.31%
Ratio IC50 (MCF7 [4]): 20
Activity (MCF7 [27]): 32.84%
pIC50 (Ishikawa [2]): 4.99
Activity (MCF7 [28]): 38.85%
viability at 5 µM (MCF7 [29]): 77.4%

C=CC(=O)N1CCN(c2ccc(C(=O)c3c(-c4ccc(O)cc4)sc4cc(O)ccc34)cc2)CC1
pIC50 (MCF7 [1]): < 4.30
pIC50 (Ishikawa [2]): < 4.00

CN(C)C(=O)/C=C/CN1CC(Oc2ccc(C(=O)c3c(-c4ccc(O)cc4)sc4cc(O)ccc34)cc2)C1
pIC50 (MCF7 [1]): 4.53
pIC50 (Ishikawa [2]): 4.53

C=C(C)C(=O)N1CCN(c2ccc(C(=O)c3c(-c4ccc(O)cc4)sc4cc(O)ccc34)cc2)CC1
pIC50 (MCF7 [1]): < 4.30
pIC50 (Ishikawa [2]): < 4.00

O=C(c1ccc(OCCNC/C=C/C(=O)N2CCCC2)cc1)c1c(-c2ccc(O)cc2)sc2cc(O)ccc12
pIC50 (MCF7 [1]): 4.62
pIC50 (Ishikawa [2]): 4.34

C=CC(=O)N1CC(Oc2ccc(C(=O)c3c(-c4ccc(O)cc4)sc4cc(O)ccc34)cc2)C1
pIC50 (MCF7 [1]): 4.50
pIC50 (Ishikawa [2]): 4.78
